Experimental data taken from patent US20250368616A1, “NITROGEN-CONTAINING HETEROCYCLIC DERIVATIVE INHIBITOR, AND PREPARATION METHOD THEREFOR AND USE THEREOF” (SHANGHAI HANSOH BIOMEDICAL CO., LTD., priority 2021, published 2025).

What was measured:
[1] = test system: Ba/F3 EGFR Del19/T790M/C797S cells; test: Cell proliferation inhibition assay (Cell Titer-Glo), Ba/F3 EGFR Del19/T790M/C797S; assay type: cell-based; conditions: 72 hours, read-out: Ba/F3 EGFR Del19_T790M_C797S IC50
Source text: Test Example 2: Cell Proliferation Inhibition Assay
Experimental objective: The objective of this test example is to test the inhibitory activity of compounds on the proliferation of different EGFR C797S drug-resistant mutant cell lines Ba/F3 EGFR Del19/T790M/C797S, Ba/F3 EGFR L858R/T790M/C797S, and Ba/F3 EGFR Del19/C797S.
• Ba/F3 EGFR Del19/T790M/C797S cells were purchased from KYinno Biotechnology Co., Ltd.; • Ba/F3 EGFR Del19/C797S cells were purchased from CoBioer Biosciences Co., Ltd.; • Ba/F3 EGFR L858R/T790M/C797S cells were purchased from CoBioer Biosciences Co., Ltd.; • Cell Titer-Glo was purchased from Promega, with a catalog number of G7573; • RPMI 1640 was purchased from Gibco, with a catalog number of 22400089; • FBS was purchased from Gibco, with a catalog number of 10091148; • cell culture plates were purchased from Corning, with a catalog number of 3610.
The inhibitory activity of the compound on the proliferation of different EGFR C797S drug-resistant mutant cell lines was detected using the Cell Titer-Glo method. The different cell lines were cultured in RPMI 1640 complete culture medium containing 10% FBS under conditions of 37° C. and 5% CO2, the cells were collected by centrifugation when growing to a certain density, and adjusted to appropriate cell density after counting, the cells were spread on a white 96-well plate at 90 μL/well, and cultured in a 37° C., 5% CO2 incubator overnight, prepared compound solutions of different concentrations were added at 10 μL/well, corresponding solvent controls were set, and all wells were cultured in a 37° C., 5% CO2 incubator for 72 hours, 50 μL of CellTiter-Glo solution was added to each well, shook and mixed evenly, and incubated in the dark for 10 minutes, and a BioTek Synergy H1 microplate reader was used for reading.
The luminescence signal value was used to calculate the inhibition rate. Graphpad Prism software was used to fit the concentration and inhibition rate to a nonlinear regression curve, so as to obtain the IC50 value, as shown in Tables 3 and 4 below for details.

[2] = test system: Ba/F3 EGFR Del19/C797S cells; test: Cell proliferation inhibition assay (Cell Titer-Glo), Ba/F3 EGFR Del19/C797S; assay type: cell-based; conditions: 72 hours, read-out: Ba/F3 EGFR Del19_C797S IC50
How it was run: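 Ba/F3 cells carrying EGFR Del19/T790M/C797S or Del19/C797S, grown in RPMI 1640 with 10% FBS, were plated overnight and then exposed to serially diluted compound for 72 h at 37° C, 5% CO2. Viability was read by CellTiter-Glo luminescence; IC50 came from a nonlinear fit of inhibition rate against concentration.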

[3] = target: EGFR del19/T790M/C797S mutant kinase (Homo sapiens, UniProt P00533, C797S/DEL746-750/T790M); test: HTRF kinase assay, EGFR del19/T790M/C797S mutant kinase; assay type: biochemical; conditions: 120 minutes at room temperature
Source text: (§1) Test Example 1. Determination of the Inhibitory Effect of the Compounds of the Present Invention on the Activity of EGFR del19/T790M/C797S and EGFR L858R/T790M/C797S Mutant Kinases
(§2) Experimental objective: The objective of this test example is to test the inhibitory activity of the compounds on the activity of EGFR del19/T790M/C797S and EGFR L858R/T790M/C797S mutant kinases.
(§3) Experimental method: This experiment used Cisbio's HTRF kinase assay method (Cisbio #62TK0PEB), wherein a catalytic reaction occurred between the substrate polypeptide TK and ATP in the presence of the tyrosine kinase with EGFR del19/T790M/C797S or EGFR L858R/T790M/C797S mutation, the substance was phosphorylated, and the activity of the kinase was characterized by measuring the content of the phosphorylated substrate generated during the reaction, and the half inhibitory concentration IC50 of the compound on the activity of EGFR del19/T790M/C797S or EGFR L858R/T790M/C797S mutant kinase was obtained.
(§4) Specific Experimental Operations were as Follows: • the kinase reaction was carried out in a white 384-well plate (Perkin Elmer #6008280), and 1-5 μL of compounds of different concentrations which were diluted with 1% DMSO-containing ddH2O were added; to the positive control wells were added 1-5 μL of 1% DMSO-containing ddH2O, followed by 1-5 μL of 0.5-5 nM 4×EGFR del19/T790M/C797S or EGFR L858R/T790M/C797S mutant kinase solution which was diluted with Dilution buffer (5× kinase buffer, MgCl2 6.65 Mm, MnCl2 1.33 mM, DTT 1.33 mM); to the negative control wells were added 1-5 μL of Dilution buffer; to all the wells were added 1-5 μL of 4 μM 4× substrate TK solution which was prepared with 10× Dilution buffer, and finally added 1-5 μL of 24 μM 4×ATP solution which was diluted with Dilution buffer to start the reaction; after reacting at room temperature for 120 minutes, 10 μL of detection solution (TK antibody 16 nM, XL665 0.5 μM) was added to each well, same was reacted at room temperature in the dark for 20 minutes, and then the […] was detected using a BioTek Synergy H1 microplate reader.
(§5) The percent inhibition data for compound-treated wells was calculated according to the positive control wells (DMSO control wells) and negative control wells (no kinase added) on the plate {% inhibition rate=100−[(test compound value−negative control value)]/(positive control value−negative control value)×100}. GraphPad prism was used to fit different concentrations and corresponding percent inhibition rate data to a 4-parameter nonlinear logistic equation to calculate IC50 values.

[4] = target: EGFR L858R/T790M/C797S mutant kinase (Homo sapiens (Human), UniProt P00533, C797S/L858R/T790M); test: HTRF kinase assay, EGFR L858R/T790M/C797S mutant kinase; assay type: biochemical; conditions: 120 minutes at room temperature
Source text: as §1, §2, §3, §4, §5

Sequence of EGFR L858R/T790M/C797S mutant kinase (P00533 25-1210 T790M/C797S/L858R): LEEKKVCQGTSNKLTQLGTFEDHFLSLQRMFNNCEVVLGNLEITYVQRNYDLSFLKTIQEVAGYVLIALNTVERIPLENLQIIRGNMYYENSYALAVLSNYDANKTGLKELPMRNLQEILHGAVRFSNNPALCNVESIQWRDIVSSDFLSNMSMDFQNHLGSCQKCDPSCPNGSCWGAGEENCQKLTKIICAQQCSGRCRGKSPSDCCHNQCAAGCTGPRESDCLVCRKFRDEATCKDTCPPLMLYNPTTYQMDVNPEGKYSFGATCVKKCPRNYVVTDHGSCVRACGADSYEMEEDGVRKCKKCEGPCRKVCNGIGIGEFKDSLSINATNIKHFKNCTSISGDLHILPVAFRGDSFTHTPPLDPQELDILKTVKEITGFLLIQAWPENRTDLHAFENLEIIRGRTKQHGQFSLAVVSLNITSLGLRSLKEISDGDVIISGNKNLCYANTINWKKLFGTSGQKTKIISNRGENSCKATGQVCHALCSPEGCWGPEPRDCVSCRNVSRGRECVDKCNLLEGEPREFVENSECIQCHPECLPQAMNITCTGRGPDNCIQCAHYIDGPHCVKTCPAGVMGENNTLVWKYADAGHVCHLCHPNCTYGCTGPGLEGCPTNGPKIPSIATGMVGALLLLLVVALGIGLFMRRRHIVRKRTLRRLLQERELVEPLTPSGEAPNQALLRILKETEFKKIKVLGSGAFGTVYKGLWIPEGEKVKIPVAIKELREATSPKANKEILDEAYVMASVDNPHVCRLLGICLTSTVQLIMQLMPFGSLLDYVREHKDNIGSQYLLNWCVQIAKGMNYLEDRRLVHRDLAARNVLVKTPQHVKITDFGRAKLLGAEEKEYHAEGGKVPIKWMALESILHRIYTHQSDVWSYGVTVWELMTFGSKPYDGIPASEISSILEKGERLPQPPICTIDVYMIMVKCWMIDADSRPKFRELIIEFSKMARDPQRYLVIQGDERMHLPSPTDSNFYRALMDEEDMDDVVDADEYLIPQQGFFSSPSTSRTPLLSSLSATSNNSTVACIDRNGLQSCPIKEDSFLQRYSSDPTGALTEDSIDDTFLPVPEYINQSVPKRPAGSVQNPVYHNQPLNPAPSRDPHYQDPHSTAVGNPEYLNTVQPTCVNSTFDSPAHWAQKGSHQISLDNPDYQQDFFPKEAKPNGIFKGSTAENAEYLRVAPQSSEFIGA
Sequence of EGFR del19/T790M/C797S mutant kinase (P00533 with tags, fused parts or gaps C797S/DEL746-750/T790M limits assumed): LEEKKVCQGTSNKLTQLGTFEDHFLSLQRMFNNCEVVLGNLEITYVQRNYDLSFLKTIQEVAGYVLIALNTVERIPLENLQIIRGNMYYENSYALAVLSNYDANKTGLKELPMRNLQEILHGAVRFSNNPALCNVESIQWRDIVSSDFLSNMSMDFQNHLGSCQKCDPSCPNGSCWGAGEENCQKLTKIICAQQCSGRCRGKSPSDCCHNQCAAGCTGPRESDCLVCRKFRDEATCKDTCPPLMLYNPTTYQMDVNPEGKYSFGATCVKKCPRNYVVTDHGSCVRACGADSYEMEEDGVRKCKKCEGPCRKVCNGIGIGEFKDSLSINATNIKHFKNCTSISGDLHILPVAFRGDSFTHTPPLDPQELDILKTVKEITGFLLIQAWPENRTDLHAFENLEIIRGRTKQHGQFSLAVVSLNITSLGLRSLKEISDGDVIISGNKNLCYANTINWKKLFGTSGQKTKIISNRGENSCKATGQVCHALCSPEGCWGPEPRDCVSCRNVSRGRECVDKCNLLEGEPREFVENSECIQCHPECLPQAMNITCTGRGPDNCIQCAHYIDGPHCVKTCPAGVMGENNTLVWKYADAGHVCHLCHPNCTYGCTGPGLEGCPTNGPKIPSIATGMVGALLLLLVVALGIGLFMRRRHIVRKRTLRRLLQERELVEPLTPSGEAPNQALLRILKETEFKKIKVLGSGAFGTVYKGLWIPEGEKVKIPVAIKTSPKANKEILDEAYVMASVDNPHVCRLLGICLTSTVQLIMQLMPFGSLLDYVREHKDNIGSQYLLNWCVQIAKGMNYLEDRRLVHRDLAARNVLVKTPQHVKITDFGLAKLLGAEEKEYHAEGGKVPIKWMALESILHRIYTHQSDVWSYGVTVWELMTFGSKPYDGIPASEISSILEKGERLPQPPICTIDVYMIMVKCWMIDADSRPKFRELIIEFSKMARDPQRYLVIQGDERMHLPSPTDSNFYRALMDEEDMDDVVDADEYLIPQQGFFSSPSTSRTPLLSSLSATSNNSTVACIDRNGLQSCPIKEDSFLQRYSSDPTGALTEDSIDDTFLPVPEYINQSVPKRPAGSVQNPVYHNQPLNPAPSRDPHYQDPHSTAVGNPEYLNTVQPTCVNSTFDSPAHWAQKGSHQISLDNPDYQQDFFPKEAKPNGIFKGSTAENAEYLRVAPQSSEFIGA

SMILES | IC50 [1] [nM] | IC50 [2] [nM] | IC50 [3] [nM] | IC50 [4] [nM]
CC(C)c1ccc(N2CC(CS(C)(=O)=O)C2)c2cnc(Nc3ccnc(-c4cnn(S(=O)(=O)C5CC5)c4)n3)cc12 [Example 1, N-(2-(1-(cyclopropylsulfonyl)-1H-pyrazol-4-yl)pyrimidin-4-yl)-5-isopropyl-8-(3-((methanesulfonyl)methyl)azetidin-1-yl)isoquinolin-3-amine] | 10 | 14 | 0.58 | 0.51
CC(C)c1ccc(N2C[C@H](CS(C)(=O)=O)[C@H]2C)c2cnc(Nc3ccnc(-c4cnn(C5CCN(C)CC5)c4)n3)cc12 [Example 14, 5-isopropyl-8-((2R,3S)-2-methyl-3-((methanesulfonyl)methyl)azetidin-1-yl)-N-(2-(1-(1-methylpiperidin-4-yl)-1H-pyrazol-4-yl)pyrimidin-4-yl)isoquinolin-3-amine] |  | 54 | 3.6 | 0.73
CC(C)c1ccc(N2C[C@H](CS(C)(=O)=O)[C@H]2C)c2cnc(Nc3ccnc(-c4cnn(C5CC5)c4)n3)cc12 [Example 15, N-(2-(1-cyclopropyl-1H-pyrazol-4-yl)pyrimidin-4-yl)-5-isopropyl-8-((2R,3S)-2-methyl-3-((methanesulfonyl)methyl)azetidin-1-yl)isoquinolin-3-amine] |  | 41 | 2.5 | 1.9
CC(C)c1ccc(N2C[C@H](CS(C)(=O)=O)[C@H]2C)c2cnc(Nc3ccnc(-c4cnn(CC5(C#N)CC5)c4)n3)cc12 [Example 19, 1-((4-(4-((5-isopropyl-8-((2R,3S)-2-methyl-3-((methanesulfonyl)methyl)azetidin-1-yl)isoquinolin-3-yl)amino)pyrimidin-2-yl)-1H-pyrazol-1-yl)methyl)cyclopropane-1-carbonitrile] |  |  | 2.5 | 1
CC(C)c1ccc(N2C[C@H](CS(C)(=O)=O)[C@H]2C)c2cnc(Nc3ccnc(-c4cnn(C5COC5)c4)n3)cc12 [Example 20, 5-isopropyl-8-((2R,3S)-2-methyl-3-((methanesulfonyl)methyl)azetidin-1-yl)-N-(2-(1-(oxetan-3-yl)-1H-pyrazol-4-yl)pyrimidin-4-yl)isoquinolin-3-amine] |  |  | 6.2 | 0.92
CC(C)c1ccc(N2C[C@H](CS(C)(=O)=O)[C@H]2C)c2cnc(Nc3ccnc(-c4cnn(CC5CCO5)c4)n3)cc12 (stereo partly drawn) [Example 21, 5-isopropyl-8-((2R,3S)-2-methyl-3-((methanesulfonyl)methyl)azetidin-1-yl)-N-(2-(1-(oxetan-2-ylmethyl)-1H-pyrazol-4-yl)pyrimidin-4-yl)isoquinolin-3-amine] |  | 96 | 3.9 | 0.6
CC(C)c1ccc(N2C[C@H](CS(C)(=O)=O)[C@H]2C)c2cnc(Nc3ccnc(-c4cnn(C)c4)n3)cc12 [Example 24, 5-isopropyl-N-(2-(1-methyl-1H-pyrazol-4-yl)pyrimidin-4-yl)-8-((2R,3S)-2-methyl-3-((methanesulfonyl)methyl)azetidin-1-yl)isoquinolin-3-amine] | 10 | 29 | 3.6 | 0.3
CC(C)c1ccc(N2C[C@H](CS(C)(=O)=O)[C@H]2C)c2cnc(Nc3ccnc(-c4cnn(CCF)c4)n3)cc12 [Example 27, N-(2-(1-(2-fluoroethyl)-1H-pyrazol-4-yl)pyrimidin-4-yl)-5-isopropyl-8-((2R,3S)-2-methyl-3-((methanesulfonyl)methyl)azetidin-1-yl)isoquinolin-3-amine] |  | 40 | 8.9 | 1.9
